Measurements: ChEMBL document CHEMBL4346717, “1,2,4-Triazole-quinoline/quinolone hybrids as potential anti-bacterial agents” (Eur J Med Chem, 2019)
Converted amounts (≈) assume the structure as drawn.

Legend:
Type in all cases: functional
Staphylococcus aureus [1] = assay: Antibacterial activity against Staphylococcus aureus
Bacillus cereus = assay: Antibacterial activity against Bacillus cereus
Escherichia coli [2] = assay: Antibacterial activity against Escherichia coli
[3] = tested on: Yersinia pseudotuberculosis; assay: Antibacterial activity against Yersinia pseudotuberculosis
Pseudomonas aeruginosa [4] = assay: Antibacterial activity against Pseudomonas aeruginosa
[5] = tested on: Mycolicibacterium smegmatis; assay: Antibacterial activity against Mycobacterium smegmatis
Enterococcus faecalis = assay: Antibacterial activity against Enterococcus faecalis
Pseudomonas aeruginosa [6] = assay: Antibacterial activity against Pseudomonas aeruginosa after 3 to 7 days by cup diffusion method
Bacillus subtilis [7] = assay: Antibacterial activity against Bacillus subtilis assessed as zone of inhibition at 10 mg/ml after 3 to 7 days by cup diffusion method; details: read-out: IZ
Bacillus subtilis [8] = assay: Antibacterial activity against Bacillus subtilis after 3 to 7 days by cup diffusion method
Mycolicibacterium phlei [9] = assay: Antibacterial activity against Mycobacterium phlei clinical isolate assessed as zone of inhibition at 10 mg/ml after 3 to 7 days by cup diffusion method; details: read-out: IZ
Pseudomonas aeruginosa [10] = assay: Antibacterial activity against Pseudomonas aeruginosa assessed as zone of inhibition at 10 mg/ml after 3 to 7 days by cup diffusion method; details: read-out: IZ
[11] = tested on: Aggregatibacter actinomycetemcomitans; assay: Antibacterial activity against Aggregatibacter actinomycetemcomitans ATCC 29524 after 3 to 7 days by cup diffusion method
Escherichia coli [12] = assay: Antibacterial activity against Escherichia coli assessed as zone of inhibition at 10 mg/ml after 3 to 7 days by cup diffusion method; details: read-out: IZ
Staphylococcus aureus [13] = assay: Antibacterial activity against Staphylococcus aureus assessed as zone of inhibition at 10 mg/ml after 3 to 7 days by cup diffusion method; details: read-out: IZ
[14] = tested on: Aggregatibacter actinomycetemcomitans; assay: Antibacterial activity against Aggregatibacter actinomycetemcomitans ATCC 29524 assessed as zone of inhibition at 10 mg/ml after 3 to 7 days by cup diffusion method; details: read-out: IZ
Mycolicibacterium phlei [15] = assay: Antibacterial activity against Mycobacterium phlei clinical isolate after 3 to 7 days by cup diffusion method
Escherichia coli [16] = assay: Antibacterial activity against Escherichia coli after 3 to 7 days by cup diffusion method
Staphylococcus aureus [17] = assay: Antibacterial activity against Staphylococcus aureus after 3 to 7 days by cup diffusion method

## CCn1cc(C(=O)O)c(=O)c2cc(F)c(N3CCN(Cn4nc(N5CCN(c6ccc([N+](=O)[O-])cc6)CC5)n(-c5ccccc5)c4=O)CC3)cc21
Staphylococcus aureus [1]
  MIC: 0.03 to 0.99 µg/mL (≈ 0.043 to 1.42 µM)
Bacillus cereus
  MIC: 0.03 to 0.99 µg/mL (≈ 0.043 to 1.42 µM)
Escherichia coli [2]
  MIC: 0.03 to 0.99 µg/mL (≈ 0.043 to 1.42 µM)
[3]
  MIC: 0.03 to 0.99 µg/mL (≈ 0.043 to 1.42 µM)
Pseudomonas aeruginosa [4]
  MIC: 0.03 to 0.99 µg/mL (≈ 0.043 to 1.42 µM)
[5]
  MIC: 0.03 to 0.99 µg/mL (≈ 0.043 to 1.42 µM)
Enterococcus faecalis
  MIC: 0.03 to 0.99 µg/mL (≈ 0.043 to 1.42 µM)

## Cc1cccc2c(-c3ccccc3)cc(=O)n(Cc3nnc(S)n3N)c12
Staphylococcus aureus [1]
  MIC: 8 to 256 µg/mL (≈ 22 to 704 µM)
Escherichia coli [2]
  MIC: 8 to 256 µg/mL (≈ 22 to 704 µM)
Pseudomonas aeruginosa [4]
  MIC: 8 to 256 µg/mL (≈ 22 to 704 µM)

## COc1cccc2c(-c3ccccc3)cc(=O)n(Cc3nnc(S)n3N)c12
Staphylococcus aureus [1]
  MIC: 8 to 256 µg/mL (≈ 21.1 to 675 µM)
Escherichia coli [2]
  MIC: 8 to 256 µg/mL (≈ 21.1 to 675 µM)
Pseudomonas aeruginosa [4]
  MIC: 8 to 256 µg/mL (≈ 21.1 to 675 µM)

## CCn1cc(C(=O)O)c(=O)c2cc(F)c(N3CCN(Cn4nc(N5CCN(c6ccc([N+](=O)[O-])cc6)CC5)n(-c5ccccc5)c4=S)CC3)cc21
Staphylococcus aureus [1]
  MIC: 0.03 to 0.99 µg/mL (≈ 0.042 to 1.39 µM)
Bacillus cereus
  MIC: 0.03 to 0.99 µg/mL (≈ 0.042 to 1.39 µM)
Escherichia coli [2]
  MIC: 0.03 to 0.99 µg/mL (≈ 0.042 to 1.39 µM)
[3]
  MIC: 0.03 to 0.99 µg/mL (≈ 0.042 to 1.39 µM)
Pseudomonas aeruginosa [4]
  MIC: 0.03 to 0.99 µg/mL (≈ 0.042 to 1.39 µM)
[5]
  MIC: 0.03 to 0.99 µg/mL (≈ 0.042 to 1.39 µM)
Enterococcus faecalis
  MIC: 0.03 to 0.99 µg/mL (≈ 0.042 to 1.39 µM)

## Nn1c(S)nnc1Cn1c(=O)cc(-c2ccccc2)c2cc(Cl)ccc21
Staphylococcus aureus [1]
  MIC: 8 to 256 µg/mL (≈ 20.8 to 667 µM)
Escherichia coli [2]
  MIC: 8 to 256 µg/mL (≈ 20.8 to 667 µM)
Pseudomonas aeruginosa [4]
  MIC: 8 to 256 µg/mL (≈ 20.8 to 667 µM)

## Cc1ccc2c(c1)c(-c1ccccc1)cc(=O)n2Cc1nnc(S)n1N
Staphylococcus aureus [1]
  MIC: 8 to 256 µg/mL (≈ 22 to 704 µM)
Escherichia coli [2]
  MIC: 8 to 256 µg/mL (≈ 22 to 704 µM)
Pseudomonas aeruginosa [4]
  MIC: 8 to 256 µg/mL (≈ 22 to 704 µM)

## Nn1c(S)nnc1Cn1c(=O)cc(-c2ccccc2)c2ccccc21
Staphylococcus aureus [1]
  MIC: 8 to 256 µg/mL (≈ 22.9 to 733 µM)
Escherichia coli [2]
  MIC: 8 to 256 µg/mL (≈ 22.9 to 733 µM)
Pseudomonas aeruginosa [4]
  MIC: 8 to 256 µg/mL (≈ 22.9 to 733 µM)

## COc1ccc2c(c1)c(-c1ccccc1)cc(=O)n2Cc1nnc(S)n1N
Staphylococcus aureus [1]
  MIC: 8 to 256 µg/mL (≈ 21.1 to 675 µM)
Escherichia coli [2]
  MIC: 8 to 256 µg/mL (≈ 21.1 to 675 µM)
Pseudomonas aeruginosa [4]
  MIC: 8 to 256 µg/mL (≈ 21.1 to 675 µM)

## Cc1ccc2c(-c3ccccc3)cc(=O)n(Cc3nnc(S)n3N)c2c1
Staphylococcus aureus [1]
  MIC: 8 to 256 µg/mL (≈ 22 to 704 µM)
Escherichia coli [2]
  MIC: 8 to 256 µg/mL (≈ 22 to 704 µM)
Pseudomonas aeruginosa [4]
  MIC: 8 to 256 µg/mL (≈ 22 to 704 µM)

## CCn1cc(-c2nc(NC(=O)c3ccc(Cl)cc3)n[nH]2)c(=O)c2ccc(C)nc21
Pseudomonas aeruginosa [6]
  MIC: >=0.031 - 32 ug ml-1
Bacillus subtilis [7]
  zone of inhibition at 10000 µg/mL: 20 to 40 mm
Bacillus subtilis [8]
  MIC: >=0.031 - 32 ug ml-1
Mycolicibacterium phlei [9]
  zone of inhibition at 10000 µg/mL: 20 to 40 mm
Pseudomonas aeruginosa [10]
  zone of inhibition at 10000 µg/mL: 20 to 40 mm
[11]
  MIC: >=0.031 - 32 ug ml-1
Escherichia coli [12]
  zone of inhibition at 10000 µg/mL: 20 to 40 mm
Staphylococcus aureus [13]
  zone of inhibition at 10000 µg/mL: 20 to 40 mm
[14]
  zone of inhibition at 10000 µg/mL: 20 to 40 mm
Mycolicibacterium phlei [15]
  MIC: >=0.031 - 32 ug ml-1
Escherichia coli [16]
  MIC: >=0.031 - 32 ug ml-1
Staphylococcus aureus [17]
  MIC: >=0.031 - 32 ug ml-1

## CCn1cc(-c2nc(/N=C/c3ccc(Cl)cc3Cl)n[nH]2)c(=O)c2ccc(C)nc21
Pseudomonas aeruginosa [6]
  MIC: >=0.031 - 32 ug ml-1
Bacillus subtilis [7]
  zone of inhibition at 10000 µg/mL: 20 to 40 mm
Bacillus subtilis [8]
  MIC: >=0.031 - 32 ug ml-1
Mycolicibacterium phlei [9]
  zone of inhibition at 10000 µg/mL: 20 to 40 mm
Pseudomonas aeruginosa [10]
  zone of inhibition at 10000 µg/mL: 20 to 40 mm
[11]
  MIC: >=0.031 - 32 ug ml-1
Escherichia coli [12]
  zone of inhibition at 10000 µg/mL: 20 to 40 mm
Staphylococcus aureus [13]
  zone of inhibition at 10000 µg/mL: 20 to 40 mm
[14]
  zone of inhibition at 10000 µg/mL: 20 to 40 mm
Mycolicibacterium phlei [15]
  MIC: >=0.031 - 32 ug ml-1
Escherichia coli [16]
  MIC: >=0.031 - 32 ug ml-1
Staphylococcus aureus [17]
  MIC: >=0.031 - 32 ug ml-1
